Laboratory results published in ChEMBL document CHEMBL5338740, “Atropo/Tropo Flexibility: A Tool for Design and Synthesis of Self-Adaptable Inhibitors of Carbonic Anhydrases and Their Antiproliferative Effect” (J Med Chem, 2023).
Active and inactive are the calls of the source. No cut-off for these calls is given here.

How the values were obtained:
Carbonic anhydrase 12 = Carbonic anhydrase 12 (Homo sapiens, UniProt O43570); assay: Inhibition of recombinant human CA XII (30 to 291 residues) expressed in escherichia coli BL21 assessed as inhibition constant preincubated for 15 mins by phenol red dye based stopped-flow CO2 hydration assay
Carbonic anhydrase 12, sequence (O43570 whole entry, the tested form may be a part): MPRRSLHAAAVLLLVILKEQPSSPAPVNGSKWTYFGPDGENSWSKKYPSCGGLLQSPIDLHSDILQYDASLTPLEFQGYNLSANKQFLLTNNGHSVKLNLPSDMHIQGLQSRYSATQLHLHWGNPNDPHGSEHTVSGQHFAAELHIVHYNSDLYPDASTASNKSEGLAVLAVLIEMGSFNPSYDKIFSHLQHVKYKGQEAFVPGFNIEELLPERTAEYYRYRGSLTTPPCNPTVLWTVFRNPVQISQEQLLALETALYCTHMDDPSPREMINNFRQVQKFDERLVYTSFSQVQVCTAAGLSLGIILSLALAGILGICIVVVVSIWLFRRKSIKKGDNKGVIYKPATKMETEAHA

Carbonic anhydrase 1 = Carbonic anhydrase 1 (Homo sapiens, UniProt P00915); assay: Inhibition of recombinant human CA1 assessed as inhibition constant preincubated for 15 mins by phenol red dye based stopped-flow CO2 hydration assay
Carbonic anhydrase 1, sequence (P00915 whole entry): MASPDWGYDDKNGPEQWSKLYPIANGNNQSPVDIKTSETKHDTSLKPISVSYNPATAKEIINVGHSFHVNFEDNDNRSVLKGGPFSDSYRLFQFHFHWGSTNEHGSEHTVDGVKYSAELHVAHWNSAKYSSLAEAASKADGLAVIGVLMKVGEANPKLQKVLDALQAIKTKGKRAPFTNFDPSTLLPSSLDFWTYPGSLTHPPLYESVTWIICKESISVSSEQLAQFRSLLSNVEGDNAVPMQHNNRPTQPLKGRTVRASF

Carbonic anhydrase 2 = Carbonic anhydrase 2 (Homo sapiens, UniProt P00918); assay: Inhibition of recombinant human […] assessed as inhibition constant preincubated for 15 mins by phenol red dye based stopped-flow CO2 hydration assay
Carbonic anhydrase 9 = Carbonic anhydrase 9 (Homo sapiens, UniProt Q16790); assay: Inhibition of recombinant human […] assessed as inhibition constant preincubated for 15 mins by phenol red dye based stopped-flow CO2 hydration assay
A549 = assay: Cytotoxicity against human A549 cells assessed as inhibition of cell viability for 48 hrs by MTT assay; assay type: functional, cell-based; conditions: A549, 48 h
MCF7 = assay: Cytotoxicity against human MCF7 cells assessed as inhibition of cell viability for 48 hrs by MTT assay; assay type: functional, cell-based; conditions: for IC50: MCF7, 48 h
HeLa = assay: Cytotoxicity against human HeLa cells assessed as inhibition of cell viability for 48 hrs by MTT assay; assay type: functional, cell-based

Ki (Carbonic anhydrase 12) [nM]	Ki (Carbonic anhydrase 1) [nM]	Ki (Carbonic anhydrase 2) [nM]	Ki (Carbonic anhydrase 9) [nM]	SMILES	IC50 (A549) [nM]	IC50 (MCF7) [nM]	IC50 (HeLa) [nM]	Activity (MCF7)	Activity (HeLa)
808	54.8	30.5	75.6	Cc1cc(-c2ccc(S(N)(=O)=O)cc2)ccc1-c1cccc2ccccc12					
559	92.8	28.7	483	NS(=O)(=O)c1ccc(-c2ccc(-c3cccc4ccccc34)cc2)s1	30000	69000	24000		
552	85.8	33.3	72.1	NS(=O)(=O)c1ccc(-c2ccc(-c3cccc4ncccc34)cc2)cc1					
558	698	144	331	NS(=O)(=O)c1cccc(-c2ccc(-c3cccc4ccccc34)cc2)c1					
501	113	58.2	84.3	NS(=O)(=O)c1ccc(-c2ccc(-c3cccc4ccccc34)cc2)cc1					
247	48.9	4.9	167	Cc1cc(-c2ccc(S(N)(=O)=O)cc2)cnc1-c1ccnc2ccccc12					
212	90.5	7.3	29.3	Cc1cc(-c2ccc(S(N)(=O)=O)s2)cnc1-c1cccc2ccccc12					
386	670	101	86.2	Cc1cc(-c2cccc(S(N)(=O)=O)c2)ccc1-c1cccc2ccccc12					
212	67.5	34.8	29.3	Cc1cc(-c2ccc(S(N)(=O)=O)s2)ccc1-c1cccc2ccccc12	102000	> 500000	> 500000		

Further lines, the compound ahead of its results:

SMILES	Ki (Carbonic anhydrase 12) [nM]	Ki (Carbonic anhydrase 1) [nM]	Ki (Carbonic anhydrase 2) [nM]	Ki (Carbonic anhydrase 9) [nM]	IC50 (A549) [nM]	IC50 (MCF7) [nM]	IC50 (HeLa) [nM]	Activity (MCF7)	Activity (HeLa)
Cc1cc(-c2ccc(S(N)(=O)=O)s2)ccc1-c1ccnc2ccccc12	41.8	35.6	5.5	106					
Cc1cc(-c2ccc(S(N)(=O)=O)s2)cnc1-c1cccc2ncccc12	86.3	59	3.2	29.8	68000	71000	51000		
NS(=O)(=O)c1ccc(-c2ccc(-c3ccnc4ccccc34)cn2)s1	51	72.5	2.1	61.4	> 500000			inactive	inactive
NS(=O)(=O)c1ccc(-c2ccc(-c3cccc4ncccc34)cc2)s1	71.8	84.5	11.3	38.4					
Cc1cc(-c2cccc(S(N)(=O)=O)c2)cnc1-c1ccnc2ccccc12	450	479	88.6	215					
Cc1cc(-c2ccc(S(N)(=O)=O)s2)cnc1-c1ccnc2ccccc12	157	50	3.7	68.1	43500	16500	105000		
Cc1cc(-c2ccc(S(N)(=O)=O)s2)ccc1-c1cccc2ncccc12	79.4	71.7	5.7	27.2	22000	32000	31000		
